Measured values reported in ChEMBL document CHEMBL5728675, “5-alkyl pyrrolidine orexin receptor agonists” (2021).

molecular target: T1, Orexin receptor type 2 (Homo sapiens, UniProt O43614); experiment: Receptor Activity Assay: In a typical experiment, the OX1 and OX2 receptor agonist activity is determined in accordance with the following general experimental method.
T1 sequence (O43614 whole entry): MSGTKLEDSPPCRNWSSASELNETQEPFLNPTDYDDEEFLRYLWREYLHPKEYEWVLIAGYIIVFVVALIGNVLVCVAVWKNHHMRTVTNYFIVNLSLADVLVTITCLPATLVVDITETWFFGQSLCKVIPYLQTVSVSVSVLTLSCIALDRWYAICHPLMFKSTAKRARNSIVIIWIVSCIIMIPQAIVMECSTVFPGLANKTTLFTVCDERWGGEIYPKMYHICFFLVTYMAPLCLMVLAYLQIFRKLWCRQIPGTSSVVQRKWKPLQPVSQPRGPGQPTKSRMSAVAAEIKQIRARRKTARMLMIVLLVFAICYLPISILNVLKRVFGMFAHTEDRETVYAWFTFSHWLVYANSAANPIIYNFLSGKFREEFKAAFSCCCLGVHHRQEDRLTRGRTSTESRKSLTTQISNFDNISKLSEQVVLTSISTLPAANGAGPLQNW

Row | Compound | IC50 [nM]
1 | COC(=O)N1[C@H](C)C[C@H](NS(=O)(=O)CC(F)F)[C@@H]1CO[C@H]1CC[C@@H](c2cccc(F)c2)CC1 | 5.2
2 | COCCS(=O)(=O)N[C@H]1C[C@@H](C)N(C(=O)OC)[C@H]1COC1CCC(c2cccc(F)c2)CC1 (stereo partly specified) | 4.6
3 | COC(=O)N1[C@H](C)C[C@H](NS(=O)(=O)CF)[C@@H]1CO[C@H]1CC[C@@H](c2ccccc2)CC1 | 0.93
4 | CC[C@@H]1C[C@H](NS(C)(=O)=O)[C@H](CO[C@H]2CC[C@@H](c3ccccc3)CC2)N1C(=O)OC | 3
5 | COC(=O)N1[C@H](C)C[C@H](NS(C)(=O)=O)[C@@H]1CO[C@H]1CC[C@@H](c2ccccc2C(F)(F)F)CC1 | 6.82
6 | COC(=O)N1[C@H](C)C[C@H](NS(=O)(=O)CF)[C@@H]1COC1CCC(c2cccc(F)c2)CC1 (stereo partly specified) | 1.4
7 | COC(=O)N1[C@H](C)C[C@H](NS(=O)(=O)N(C)C)[C@@H]1CO[C@@H]1CC[C@H](c2ccccc2)CC1F (stereo partly specified) | 10.8
8 | COC(=O)N1[C@H](C)C[C@H](NS(=O)(=O)N(C)C)[C@@H]1CO[C@H]1CC[C@@H](c2cc(F)cc(F)c2)CC1 | 0.52
9 | CC(C)OC(=O)N1[C@H](C)C[C@H](NS(=O)(=O)N(C)C)[C@@H]1COC1CCN(c2ncc(F)cn2)CC1 | 1.15
10 | COC(=O)N1[C@H](C)C[C@H](NS(=O)(=O)N(C)C)[C@@H]1CO[C@H]1CC[C@@H](c2cc(F)ccc2F)CC1 | 0.47
11 | COC(=O)N1[C@H](C)C[C@H](NS(=O)(=O)N(C)C)[C@@H]1CO[C@@H]1CC[C@H](c2cccc(F)c2)CC1F (stereo partly specified) | 3.63
12 | CCc1ccccc1[C@H]1CC[C@H](OC[C@H]2[C@@H](NS(=O)(=O)N(C)C)C[C@@H](C)N2C(=O)OC)CC1 | 111
13 | CC[C@H]1C[C@@H](NS(C)(=O)=O)[C@@H](CO[C@H]2CC[C@@H](c3ccccc3)CC2)N1C(=O)OC | 7330
14 | COC(=O)N1C(C2CC2)C[C@H](NS(C)(=O)=O)C1COC1CCC(c2ccccc2)CC1 (stereo partly specified) | 73.5
15 | COC(=O)N1[C@H](C)C[C@H](NS(C)(=O)=O)[C@@H]1CO[C@H]1CC[C@@H](c2cc(F)ccc2F)CC1 | 1.67
16 | COC(=O)N1[C@H](C)C[C@H](NS(C)(=O)=O)[C@@H]1CO[C@H]1CC[C@@H](C(C)C)CC1 | 17.7
17 | COC(=O)N1[C@H](C)C[C@H](NS(=O)(=O)N(C)C)[C@@H]1CO[C@H]1CC[C@H](c2ccc(C#N)c(C)c2)CC1 | 12.5
18 | COC[C@@H]1C[C@H](NS(=O)(=O)N(C)C)[C@H](CO[C@H]2CC[C@@H](c3cccc(F)c3)CC2)N1C(=O)OC | 0.7
19 | C[C@@H]1C[C@H](NS(=O)(=O)N(C)C)[C@H](CO[C@H]2CC[C@@H](c3cc(F)ccc3F)CC2)N1C(=O)OCC(F)F | 0.66
20 | COC(=O)N1[C@H](C)C[C@H](NS(=O)(=O)N(C)C)[C@@H]1CO[C@H]1CC[C@@H](c2ccccc2F)CC1 | 0.92
21 | COC(=O)N1[C@H](C)C[C@H](NS(=O)(=O)N(C)C)[C@@H]1CO[C@H]1CC[C@@H](c2ccc(C#N)c(C)c2)CC1 | 1.1
22 | C=C[C@@H]1C[C@H](NS(C)(=O)=O)[C@H](CO[C@H]2CC[C@@H](c3ccccc3)CC2)N1C(=O)OC (relative stereo) | 9.4
23 | COC(=O)N1[C@H](C)C[C@H](NS(=O)(=O)N(C)CC#N)[C@@H]1CO[C@H]1CC[C@@H](c2cccc(F)c2)CC1 | 0.6
24 | COC(=O)N1[C@H](C)C[C@H](NS(C)(=O)=O)[C@@H]1CO[C@H]1CC[C@@H](c2c(F)ccc(F)c2F)CC1 | 1.07
25 | COC(=O)N1[C@H](C)C[C@H](NS(C)(=O)=O)[C@@H]1CO[C@H]1CC[C@@H](c2ccc(F)c(F)c2)CC1 | 25.5
26 | CCc1ccccc1[C@H]1CC[C@@H](OC[C@H]2[C@@H](NS(=O)(=O)N(C)C)C[C@@H](C)N2C(=O)OC)CC1 | 2.2
